# Molecular target: T1, CHOK1 cells engineered to overexpress human CCR2 (Homo sapiens, UniProt P41597)
# T1 construct: expressed in transfected cells; host or cells: CHOK1 cells
# Assay: Antibody dependent cellular cytotoxicity (ADCC) reporter assay
# Type: cell-based
# Settings: with anti-cotinine antibody (SEQ ID NO: 11/12, human IgG1 Fc S239D/I332E); Jurkat FcγRIIIa NFAT-luciferase reporter cells; 12-18 hours; average if more than one run; read-out: ADCC Reporter Assay pEC50 (converted)
# Description: An antibody dependent cellular cytoxocity reporter assay was conducted using the following four assay components: (i) ARM compound of Formula (I) targeting CCR2 (concentrations ranging from 1 pM to 10 μM) (ii) anti-cotinine antibody having a heavy chain sequence of SEQ ID NO: 11 and a light chain sequence of SEQ ID NO: 12 (rabbit variable region with human IgG1 Fc domain containing a DE mutation (S239D/I332E)) (concentrations ranging from 0.01 μg/mL to 200 μg/mL); (iii) target cells: CHOK1 cells engineered to overexpress either human CCR2 (typically 1000-20,000 cells perwell) and (iv) reporter cells: Jurkat cells engineered to express FcγRIIIa with the reporter gene luciferase under the control of the NFAT promoter (typically 3000-75,000 cells per well). Reagents were combined in a final volume of 20 μL in a 384—well tissue culture treated plate. All four assay components were incubated together for about 12-18 hours. Thereafter, BioGlo Detection reagent (Promega) was added to the wells to lyse the cells and provide a substrate for the luciferase reporter protein. Luminescence signal was measured on a microplate reader and signal:background was calculated by dividing the signal of a test well by the signal obtained when no ARM compound of Formula (I) was added. EC50 calculations were done using Graphpad Prism Software, specifically a nonlinear regression curve fit (Y=Bottom+(Top−Bottom)/(1+10 ^((Log EC50−X)*HillSlope))).
# ARMs compounds of Formula (I) of the invention were tested for ADCC activity in the above assay in or more experimental runs and the results are shown in Table 3 below. Potency of the compounds of Formula (I) of the invention is reported as a pEC50 value. The pEC50 value is the negative log of the EC50 value, wherein the EC50 value is the half maximal effective concentration measured in molar (M). For compounds tested in more than one experimental run, the pEC50 value is reported as an average.
row,SMILES,EC50 [nM]
1,"CC(=O)N[C@@H]1C[C@H](NC(C)(C)C)CC[C@@H]1N1CC[C@H](Nc2nc(NCCNC(=O)[C@H]3CC[C@H](NC(=O)CCCO[C@H]4CC[C@H](OCCNC(=O)[C@H]5CC(=O)N(C)[C@@H]5c5cccnc5)CC4)CC3)nc3ccc(C(F)(F)F)cc23)C1=O [Example 12, (2S,3S)-N-(2-(((1R,4S)-4-(4-(((1S,4R)-4-((2-((4-(((S)-1-((1S,2R,4R)-2-Acetamido-4-(tert-butylamino)cyclohexyl)-2-oxopyrrolidin-3-yl)amino)-6-(trifluoromethyl)quinazolin-2-yl)amino)ethyl)carbamoyl)cyclohexyl)amino)-4-oxobutoxy)cyclohexyl)oxy)ethyl)-1-methyl-5-oxo-2-(pyridin-3-yl)pyrrolidine-3-carboxamide]",0.251
2,"CC(=O)N[C@@H]1C[C@H](NC(C)(C)C)CC[C@@H]1N1CC[C@H](Nc2nc(OCC3CCN(C(=O)[C@H]4CC[C@H](NC(=O)CCCO[C@H]5CC[C@H](OCCNC(=O)[C@H]6CC(=O)N(C)[C@@H]6c6cccnc6)CC5)CC4)CC3)nc3ccc(C(F)(F)F)cc23)C1=O [Example 8, (2S,3S)-N-(2-(((1R,4S)-4-(4-(((1S,4R)-4-(4-(((4-(((S)-1-((1S,2R,4R)-2-Acetamido-4-(tert-butylamino)cyclohexyl)-2-oxopyrrolidin-3-yl)amino)-6-(trifluoromethyl)quinazolin-2-yl)oxy)methyl)piperidine-1-carbonyl)cyclohexyl)amino)-4-oxobutoxy)cyclohexyl)oxy)ethyl)-1-methyl-5-oxo-2-(pyridin-3-yl)pyrrolidine-3-carboxamide]",50.1
3,"CC(=O)N[C@@H]1C[C@H](NC(C)(C)C)CC[C@@H]1N1CC[C@H](Nc2nc(OC3CCN(C(=O)[C@H]4CC[C@H](NC(=O)CCCO[C@H]5CC[C@H](OCCNC(=O)[C@H]6CC(=O)N(C)[C@@H]6c6cccnc6)CC5)CC4)CC3)nc3ccc(C(F)(F)F)cc23)C1=O [Example 7, (2S,3S)-N-(2-(((1R,4S)-4-(4-(((1S,4R)-4-(4-((4-(((S)-1-((1S,2R,4R)-2-acetamido-4-(tert-butylamino)cyclohexyl)-2-oxopyrrolidin-3-yl)amino)-6-(trifluoromethyl)quinazolin-2-yl)oxy)piperidine-1-carbonyl)cyclohexyl)amino)-4-oxobutoxy)cyclohexyl)oxy)ethyl)-1-methyl-5-oxo-2-(pyridin-3-yl)pyrrolidine-3-carboxamide]",79.4

# From patent US20250057958A1, “CYTOTOXICITY TARGETING CHIMERAS FOR CCR2-EXPRESSING CELLS” (GLAXOSMITHKLINE INTELLECTUAL PROPERTY DEVELOPMENT LIMITED, priority 2022, published 2025)
